Assay results reported in US20240376097A1, “BCL-2 Inhibitor” (BeiGene Ltd., priority 2020, published 2024).
Where two headings read alike, the source gives them in different places.

Experiments:
[1] = system: RS4;11 (BCL-2 dependent acute lymphoblastic leukemia cell line); assay: RS4;11 Cell Proliferation Assay; type: cell-based; conditions: Homo sapiens, RS4-11, RS4;11 cells, read-out: Cellular proliferation assay (IC50, nM) RS4
In short: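 Viability measured via CellTiter-Glo luminescence after a 48 h, 37 °C exposure to compounds (10 points, highest 1 μM). Seeding was 50,000 RS4;11 cells per well in 10% FBS RPMI-1640; IC50 given as mean.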

[2] = target: recombinant human Bcl-2-G101V protein (Homo sapiens (Human), UniProt P10415, G101V); assay: Bcl-2-G101V TR-FRET Assay; type: binding; conditions: Bcl-2 G101V mutant, TR-FRET; read-out: Biochemical assay (IC50, nM) Bcl-2 G101V
In short: (§1)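 Ex337/em490 & 520 nm TR-FRET; % inhibition of Bcl-2-G101V–ligand interaction from 490:520 ratio vs. increasing compound conc.; IC50 by 4-parameter logistic fit.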

[3] = system: recombinant human Bcl-2-G101V protein; assay: Bcl-2-G101V TR-FRET Assay; type: binding; conditions: ratio of biochemical IC50 Bcl-2 G101V / Bcl-2 WT
In short: as §1

[4] = system: BCL-2 G101V knock-in cell line H96 (derive from RS4;11); assay: Bcl 2-G101V Knock-In RS4;11 Cell Proliferation Assay; type: cell-based; conditions: Homo sapiens, RS4;11 Bcl-2 G101V knock-in clone H96, 48 hrs, CellTiter-GLO, read-out: Cellular proliferation assay (IC50, nM) RS4
In short: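 CellTiter-Glo luminescence after 48 h, 37 °C compound treatment (10 concentrations, maximum 1 μM or 10 μM) gave mean IC50 values. Cells were 50,000 per well of H96, a BCL2-G101V knock-in single clone derived from RS4;11 by Cas9 editing.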

[5] = target: Recombinant human Bcl-2 protein (Homo sapiens (Human), UniProt P10415); assay: Bcl-2 TR-FRET Assay; type: binding
In short: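 Displacement of FITC-labelled Bak peptide (0.5 nM) from 0.05 nM human Bcl-2, detected by TR-FRET with Tb-cryptate anti-6His antibody after 1 h at room temperature. Compounds, 10-point series, preincubated 0.5 h with protein in 20 mM potassium phosphate pH 7.5, 50 mM NaCl. IC50s fitted by four-parameter logistic.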

[6] = target: recombinant human Bcl-2 D103Y protein (Homo sapiens (Human), UniProt P10415, D103Y); assay: Bcl-2-D103Y Biochemical Assay (TR-FRET); type: binding; conditions: for IC50: TR-FRET, FITC labeled Bak peptide; for Ratio of Bcl-2 D103Y/Bcl-2 WT: ratio of IC50
In short: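 Compounds titrated against the Bcl-2 D103Y–ligand interaction; inhibition derived from the TR-FRET emission ratio 490 nm/520 nm after 337 nm excitation. Four-parameter logistic fitting gave IC50.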

[7] = Bcl-2 wild type, TR-FRET, read-out: Biochemical assay (IC50, nM) Bcl-2 WT
[8] = wild type Bcl-2, unit inferred, read-out: Bcl-2 WT

| Structure (SMILES) | IC50 [1] [nM] | IC50 [2] [nM] | Ratio of Bcl-2 G101V/WT [3] | IC50 [4] [nM] | IC50 [5, 7] [nM] | IC50 [5, 8] [nM] | IC50 [6] [nM] | Ratio of Bcl-2 D103Y/Bcl-2 WT [6] |
| --- | --- | --- | --- | --- | --- | --- | --- | --- |
| COc1ccc(CN2CCN(C3CC4(C3)CN(c3ccc(C(=O)NS(=O)(=O)c5ccc(NC[C@H]6CC[C@](C)(O)CC6)c([N+](=O)[O-])c5)c(Oc5cnc6[nH]cc(F)c6c5)c3)C4)[C@H](c3ccccc3C(C)C)C2)nc1 [Example 241, 2-((3-fluoro-1H-pyrrolo[2,3-b]pyridin-5-yl)oxy)-N-((4-((((1r,4r)-4-hydroxy-4-methylcyclohexyl)methyl)amino)-3-nitrophenyl)sulfonyl)-4-(6-((R)-2-(2-isopropylphenyl)-4-((5-methoxypyridin-2-yl)methyl)piperazin-1-yl)-2-azaspiro[3.3]heptan-2-yl)benzamide] | 0.15 | 0.096 | 2.7 | 0.32 | 0.035 | 0.035 | 0.047 | 1.3 |
| COc1cc(CN2CCN(C3CC4(C3)CN(c3ccc(C(=O)NS(=O)(=O)c5ccc(NC[C@H]6CC[C@](C)(O)CC6)c([N+](=O)[O-])c5)c(Oc5cnc6[nH]ccc6c5)c3)C4)[C@H](c3ccccc3C(C)C)C2)cnc1OC [Example 242, 2-((1H-pyrrolo[2,3-b]pyridin-5-yl)oxy)-4-(6-((R)-4-((5,6-dimethoxypyridin-3-yl)methyl)-2-(2-isopropylphenyl)piperazin-1-yl)-2-azaspiro[3.3]heptan-2-yl)-N-((4-((((1r,4r)-4-hydroxy-4-methylcyclohexyl)methyl)amino)-3-nitrophenyl)sulfonyl)benzamide] | 0.17 | 0.077 | 2.6 | 0.28 | 0.03 | 0.03 | 0.033 | 1.1 |
| [2H]C([2H])([2H])Oc1ccc(CN2CCN(C3CC4(C3)CN(c3ccc(C(=O)NS(=O)(=O)c5ccc(NC[C@H]6CC[C@](C)(O)CC6)c([N+](=O)[O-])c5)c(Oc5cnc6[nH]ccc6c5)c3)C4)[C@H](c3ccccc3C(C)C)C2)cc1OC([2H])([2H])[2H] [Example 243, 2-((1H-pyrrolo[2,3-b]pyridin-5-yl)oxy)-4-(6-((R)-4-(3,4-bis(methoxy-d3)benzyl)-2-(2-isopropylphenyl)piperazin-1-yl)-2-azaspiro[3.3]heptan-2-yl)-N-((4-((((1r,4r)-4-hydroxy-4-methylcyclohexyl)methyl)amino)-3-nitrophenyl)sulfonyl)benzamide] | 0.12 | 0.086 | 2.1 | 0.22 | 0.04 | 0.041 | 0.041 | 1 |
| COc1cc(CN2CCN(C3CC4(CCN(c5ccc(C(=O)NS(=O)(=O)c6ccc(NC[C@H]7CC[C@](C)(O)CC7)c([N+](=O)[O-])c6)c(Oc6cnc7[nH]cc(F)c7c6)c5)CC4)C3)[C@H](c3ccccc3C(C)C)C2)ccc1C1CC1 [Example 258, 4-(2-((R)-4-(4-cyclopropyl-3-methoxybenzyl)-2-(2-isopropylphenyl)piperazin-1-yl)-7-azaspiro[3.5]nonan-7-yl)-2-((3-fluoro-1H-pyrrolo[2,3-b]pyridin-5-yl)oxy)-N-((4-((((1r,4r)-4-hydroxy-4-methylcyclohexyl)methyl)amino)-3-nitrophenyl)sulfonyl) benzamide] | 0.11 | 1.75 | 2.1 | 0.28 | 0.85 | 0.85 | 1.5 | 1.8 |
| COc1cc(CN2CCN(C3CC4(CCN(c5ccc(C(=O)NS(=O)(=O)c6ccc(NC[C@H]7CC[C@](C)(O)CC7)c([N+](=O)[O-])c6)c(Oc6cnc7[nH]ccc7c6)c5)CC4)C3)[C@H](c3ccccc3C(C)C)C2)ccc1C [Example 260, 2-((1H-pyrrolo[2,3-b]pyridin-5-yl)oxy)-N-((4-((((1r,4r)-4-hydroxy-4-methylcyclohexyl)methyl)amino)-3-nitrophenyl)sulfonyl)-4-(2-((R)-2-(2-isopropylphenyl)-4-(3-methoxy-4-methylbenzyl)piperazin-1-yl)-7-azaspiro[3.5]nonan-7-yl)benzamide] | 0.13 | 0.75 | 2.2 | 0.33 | 0.34 | 0.24 | 0.27 | 1.1 |
| CCc1ccc(CN2CCN(C3CC4(C3)CN(c3ccc(C(=O)NS(=O)(=O)c5ccc(NC[C@H]6CC[C@](C)(O)CC6)c([N+](=O)[O-])c5)c(Oc5cnc6[nH]cc(F)c6c5)c3)C4)[C@H](c3ccccc3C(C)C)C2)cc1OC [Example 268, 4-(6-((R)-4-(4-ethyl-3-methoxybenzyl)-2-(2-isopropylphenyl)piperazin-1-yl)-2-azaspiro[3.3]heptan-2-yl)-2-((3-fluoro-1H-pyrrolo[2,3-b]pyridin-5-yl)oxy)-N-((4-((((1r,4r)-4-hydroxy-4-methylcyclohexyl)methyl)amino)-3-nitrophenyl)sulfonyl) benzamide] | 0.1 | 1.3 | 1.6 | 0.25 | 0.79 | 0.79 | 0.88 | 1.1 |
| COc1cc(CN2CCN(C3CC4(CCN(c5ccc(C(=O)NS(=O)(=O)c6ccc(NC[C@H]7CC[C@](C)(O)CC7)c([N+](=O)[O-])c6)c(Oc6cnc7[nH]cc(F)c7c6)c5)CC4)C3)[C@H](c3ccccc3C(C)C)C2)ccc1C [Example 273, 2-((3-fluoro-1H-pyrrolo[2,3-b]pyridin-5-yl)oxy)-N-((4-((((1r,4r)-4-hydroxy-4-methylcyclohexyl)methyl)amino)-3-nitrophenyl)sulfonyl)-4-(2-((R)-2-(2-isopropylphenyl)-4-(3-methoxy-4-methylbenzyl)piperazin-1-yl)-7-azaspiro[3.5]nonan-7-yl)benzamide] | 0.25 | 1.9 | 2.6 | 0.46 | 0.7 | 0.7 | 0.82 | 1.2 |
| COc1cc(CN2CCN(C3CC4(C3)CN(c3ccc(C(=O)NS(=O)(=O)c5ccc(NC[C@H]6CC[C@](C)(O)CC6)c([N+](=O)[O-])c5)c(Oc5cnc6[nH]ccc6c5)c3)C4)[C@H](c3ccccc3C(C)C)C2)ccc1C [Example 275, 2-((1H-pyrrolo[2,3-b]pyridin-5-yl)oxy)-N-((4-((((1r,4r)-4-hydroxy-4-methylcyclohexyl)methyl)amino)-3-nitrophenyl)sulfonyl)-4-(6-((R)-2-(2-isopropylphenyl)-4-(3-methoxy-4-methylbenzyl)piperazin-1-yl)-2-azaspiro[3.3]heptan-2-yl)benzamide] | 0.14 | 0.54 | 2 | 0.38 | 0.27 | 0.27 | 0.21 | 0.76 |
| CC(C)c1ccccc1[C@@H]1CN(Cc2ccc3c(c2)OCCC3)CCN1C1CC2(CCN(c3ccc(C(=O)NS(=O)(=O)c4ccc(NC[C@H]5CC[C@](C)(O)CC5)c([N+](=O)[O-])c4)c(Oc4cnc5[nH]ccc5c4)c3)CC2)C1 [Example 282] | 0.36 | 0.97 | 3.9 | 4.2 | 0.25 | 0.25 | 0.47 | 1.9 |
| COc1cc(CN2CCN(C3CC4(CCN(c5ccc(C(=O)NS(=O)(=O)c6ccc(NC[C@H]7CC[C@](C)(O)CC7)c([N+](=O)[O-])c6)c(Oc6cnc7[nH]ccc7c6)c5)CC4)C3)[C@H](c3ccccc3C(C)C)C2)ccc1C(F)F [Example 288, 2-((1H-pyrrolo[2,3-b]pyridin-5-yl)oxy)-4-(2-((R)-4-(4-(difluoromethyl)-3-methoxybenzyl)-2-(2-isopropylphenyl)piperazin-1-yl)-7-azaspiro[3.5]nonan-7-yl)-N-((4-((((1r,4r)-4-hydroxy-4-methylcyclohexyl)methyl)amino)-3-nitrophenyl)sulfonyl)benzamide] | 0.19 | 1.3 | 2.5 | 0.87 | 0.52 | 0.52 | 0.43 | 0.84 |
